Legend:
[1] = Lipophilicity, logD of the compound at pH 7.4; conditions: buffer
[2] = Metabolic stability in human liver microsomes assessed as parent compound remaining level at 10 uM in presence of NADPH incubated for 60 mins by HPLC-MS/MS analysis
[3] = in vitro; conditions: human, liver microsomes
Description: Metabolic stability in human liver microsomes assessed as half life at 10 uM in presence of NADPH by HPLC-MS/MS analysis

[4] = in vitro; conditions: human, liver microsomes; remark: listed apart in the source
Description: Metabolic stability in human liver microsomes assessed as intrinsic clearance at 10 uM in presence of NADPH by HPLC-MS/MS analysis

[5] = biological target: T1, Nuclear receptor ROR-gamma (Homo sapiens, UniProt P51449); assay: Displacement of BODIPY from APC-labelled RORgammat LBD (unknown origin) incubated for 1 hrs by binding assay
T1 sequence (P51449 whole entry): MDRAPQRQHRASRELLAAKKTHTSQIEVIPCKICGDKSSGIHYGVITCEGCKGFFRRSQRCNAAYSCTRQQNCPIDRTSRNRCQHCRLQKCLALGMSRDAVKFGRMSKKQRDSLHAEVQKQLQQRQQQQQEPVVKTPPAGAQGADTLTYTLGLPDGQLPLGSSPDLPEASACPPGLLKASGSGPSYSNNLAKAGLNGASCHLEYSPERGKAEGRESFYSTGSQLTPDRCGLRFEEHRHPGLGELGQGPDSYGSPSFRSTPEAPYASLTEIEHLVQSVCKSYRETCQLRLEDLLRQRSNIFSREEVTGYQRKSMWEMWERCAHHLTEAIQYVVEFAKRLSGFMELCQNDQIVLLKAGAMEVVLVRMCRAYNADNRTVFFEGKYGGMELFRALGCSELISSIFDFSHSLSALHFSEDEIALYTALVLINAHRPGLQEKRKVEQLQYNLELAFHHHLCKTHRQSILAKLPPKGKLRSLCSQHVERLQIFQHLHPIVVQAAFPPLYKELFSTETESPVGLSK

[6] = biological target: T1, Nuclear receptor ROR-gamma
Description: Inverse agonist activity at RORgammat (unknown origin) transfected in human Jurkat cells assessed as inhibition of RORgammat transcriptional activity incubated for 8 hrs by luciferase reporter gene assay

[7] = in vivo; conditions: mouse, iv, 0.3 mg/kg
[8] = in vivo; conditions: mouse, po, 1 mg/kg
[9] = in vivo; conditions: mouse, iv, 0.3 mg/kg; remark: listed apart in the source
[10] = in vivo; conditions: mouse, po, 1 mg/kg; remark: listed apart in the source
[11] = in vivo; conditions: mouse, iv, 0.3 mg/kg; remark: listed apart in the source
[12] = in vivo; conditions: mouse, po, 1 mg/kg; remark: listed apart in the source
[13] = in vivo; conditions: mouse, iv, 0.3 mg/kg; remark: listed apart in the source
[14] = in vivo; conditions: mouse, iv, 0.3 mg/kg; remark: listed apart in the source
[15] = in vivo; conditions: mouse, iv, 0.3 mg/kg; remark: listed apart in the source
[16] = in vivo; conditions: mouse, po, 1 mg/kg; remark: listed apart in the source
[17] = in vivo; conditions: mouse, iv, 0.3 mg/kg; remark: listed apart in the source
[18] = in vivo; conditions: mouse, po, 1 mg/kg; remark: listed apart in the source
[19] = in vivo; conditions: mouse, po, 1 mg/kg; remark: listed apart in the source
[20] = species on record: Mus musculus; assay: animal or person; conditions: BALB/c, po, 312 h, read-out: INH
Description: Protection against imiquimod-induced psoriasis model of BALB/c mouse assessed as inhibition of psoriasis clinical score at 10 mg/kg, po administered for 13 days

[21] = species on record: Mus musculus; assay: animal or person; conditions: BALB/c, po, 312 h, read-out: INH; remark: listed apart in the source
Description: Protection against imiquimod-induced psoriasis model of BALB/c mouse assessed as inhibition of psoriasis clinical score at 20 mg/kg, po administered for 13 days

Question: Which logD [1] does the source give for CCc1ccc(N(CC(C)C)S(=O)(=O)c2ccc3c(c2)C(=O)N(C2CCOCC2)C3)cc1 here?
Answer: 3.64

Question: With CC(C)CN(c1ccccc1F)S(=O)(=O)c1ccc2c(c1)C(=O)CC(C1CCOCC1)O2 (stereo unspecified) as the compound, how does the logD [1] read?
Answer: 3.44

Question: For CCc1ccc(N(CC(C)C)S(=O)(=O)c2ccc3cc(OCC4CCOCC4)c(C(=O)OC)cc3c2)cc1, which logD [1] is on record?
Answer: 6.09

Question: For CCc1ccc(N(CC(C)C)S(=O)(=O)c2ccc3c(c2)C(=O)CC(CC2CCOCC2)O3)cc1 (stereo unspecified), which logD [1] is on record?
Answer: 4.53

Question: For CCc1ccc(N(CC(F)(F)F)S(=O)(=O)c2ccc3c(c2)C(=O)CC(C2CCOCC2)O3)cc1 (stereo unspecified), which logD [1] is on record?
Answer: 3.97

Question: What does the source list for CC(C)CN(c1ccc(N(C)C)cc1)S(=O)(=O)c1ccc2c(c1)C(=O)CC(C1CCOCC1)O2 (stereo unspecified)?
Answer: remaining at 1 h, 10 µM [2]: 11.5%; logD [1]: 3.6; half-life at 10 µM [3]: 12.8 min; CLint scaled at 10 µM [4]: 98.5 mL/min/kg

Question: For CCc1ccc2c(c1)CC(C)CN2S(=O)(=O)c1ccc2c(c1)C(=O)CC(C1CCOCC1)O2 (stereo unspecified), which IC50 [5] is on record?
Answer: > 10 µM

Question: What about the logD [1] of the same compound?
Answer: 3.77

Question: And the IC50 [6]?
Answer: > 10 µM

Question: Which logD [1] does the source give for CCc1ccc(NS(=O)(=O)c2ccc3c(c2)C(=O)CC(C2CCOCC2)O3)cc1 (stereo unspecified) here?
Answer: 2.67

Question: With CC(C)CN(C1CCc2ccc(F)cc21)S(=O)(=O)c1ccc2c(c1)C(=O)CC(C1CCOCC1)O2 (stereo unspecified) as the compound, how does the logD [1] read?
Answer: 4.03

Question: Which logD [1] does the source give for CCc1ccc(N(CC(C)C)S(=O)(=O)c2ccc3cc(OCC4CCOCC4)c(C(=O)OCC4CCOCC4)cc3c2)cc1 here?
Answer: 6.34

Question: With CCc1ccc(N(CC2CC2)S(=O)(=O)c2ccc3c(c2)C(=O)CC(C2CCOCC2)O3)cc1 (stereo unspecified) as the compound, how does the remaining at 1 h, 10 µM [2] read?
Answer: 23%

Question: What about the logD [1] of the same compound?
Answer: 3.77

Question: And the half-life at 10 µM [3]?
Answer: 22.3 min

Question: And the CLint scaled at 10 µM [4]?
Answer: 55.8 mL/min/kg

Question: With CC(C)CN(c1ccc(F)cc1)S(=O)(=O)c1ccc2c(c1)C(=O)CC(C1CCOCC1)O2 (stereo unspecified) as the compound, how does the remaining at 1 h, 10 µM [2] read?
Answer: 0.2%

Question: What about the logD [1] of the same compound?
Answer: 3.48

Question: What about the half-life at 10 µM [3] of the same compound?
Answer: 0.7 min

Question: What about the CLint scaled at 10 µM [4] of the same compound?
Answer: 1760 mL/min/kg

Question: For Cc1ccc(N(C2CCC2)S(=O)(=O)c2ccc3c(c2)C(=O)CC(C2CCOCC2)O3)c(C)c1 (stereo unspecified), which remaining at 1 h, 10 µM [2] is on record?
Answer: 4.5%

Question: What about the logD [1] of the same compound?
Answer: 3.86

Question: What about the half-life at 10 µM [3] of the same compound?
Answer: 6.2 min

Question: What about the CLint scaled at 10 µM [4] of the same compound?
Answer: 202 mL/min/kg

Question: Which IC50 [5] does the source give for CCc1ccc(N(CC(C)C)S(=O)(=O)c2ccc3c(c2)C(=O)CC(C2CCN(C(=O)OC(C)(C)C)CC2)O3)cc1 (stereo unspecified) here?
Answer: > 10 µM

Question: What about the logD [1] of the same compound?
Answer: 5.1

Question: What about the IC50 [6] of the same compound?
Answer: > 10 µM

Question: For CC(C)CN(c1ccc(F)cc1F)S(=O)(=O)c1ccc2c(c1)C(=O)CC(C1CCOCC1)O2 (stereo unspecified), which logD [1] is on record?
Answer: 3.62

Question: For CCc1ccc(N(CC(C)C)S(=O)(=O)c2ccc3c(c2)C(F)CC(C2CCOCC2)O3)cc1 (stereo unspecified), which logD [1] is on record?
Answer: 5.02

Question: For CC(C)CN(Cc1ccccc1C(F)(F)F)S(=O)(=O)c1ccc2c(c1)C(=O)CC(C1CCOCC1)O2 (stereo unspecified), which logD [1] is on record?
Answer: 4.32

Question: With CCc1ccc(N(CC(C)C)S(=O)(=O)c2ccc3c(c2)C(=O)CC(C2CCNCC2)O3)cc1 (stereo unspecified) as the compound, how does the logD [1] read?
Answer: 2.21

Question: For CC(C)CN(c1cccc(F)c1)S(=O)(=O)c1ccc2c(c1)C(=O)CC(C1CCOCC1)O2 (stereo unspecified), which logD [1] is on record?
Answer: 3.5

Question: With CCc1ccc(N(CC(C)C)S(=O)(=O)c2ccc3c(c2)C(=O)CC(C2CCN(C(=O)C4CCCC4)CC2)O3)cc1 (stereo unspecified) as the compound, how does the logD [1] read?
Answer: 5.13

Question: Which IC50 [5] does the source give for CCc1ccc(N(C2COC2)S(=O)(=O)c2ccc3c(c2)C(=O)CC(C2CCOCC2)O3)cc1 (stereo unspecified) here?
Answer: > 10 µM

Question: And the logD [1]?
Answer: 2.72

Question: What about the IC50 [6] of the same compound?
Answer: > 10 µM

Question: For CCc1ccc(N(CC(C)C)S(=O)(=O)c2ccc3c(c2)C(=O)CC(C2CCN(S(C)(=O)=O)CC2)O3)cc1 (stereo unspecified), which logD [1] is on record?
Answer: 3.31

Question: For CCc1ccc(N(CC(C)C)S(=O)(=O)c2ccc(OCC3CCOCC3)c(CO)c2)cc1 [GSK2981278], which remaining at 1 h, 10 µM [2] is on record?
Answer: 0.2%

Question: What about the CLint scaled at 10 µM [4] of the same compound?
Answer: 1610 mL/min/kg

Question: For CC(C)CN(c1ccc(C(C)(C)C)cc1)S(=O)(=O)c1ccc2c(c1)C(=O)CC(C1CCOCC1)O2 (stereo unspecified), which logD [1] is on record?
Answer: 4.97

Question: What does the source list for CCc1ccc(N(CC(C)C)S(=O)(=O)c2ccc3cc(OCC4CCOCC4)c(C(=O)O)cc3c2)cc1?
Answer: IC50 [5]: > 10 µM; logD [1]: 1.77; IC50 [6]: > 10 µM

Question: Which logD [1] does the source give for Cc1ccc(NS(=O)(=O)c2ccc3c(c2)C(=O)CC(C2CCOCC2)O3)c(C)c1 (stereo unspecified) here?
Answer: 2.75

Question: For CCc1ccc(N(CC(C)C)S(=O)(=O)c2ccc3c(c2)C(=O)CC(C2(C)CCOCC2)O3)cc1 (stereo unspecified), which logD [1] is on record?
Answer: 4.71

Question: With CCc1ccc(N(CC(C)C)S(=O)(=O)c2ccc3c(c2)C(=O)CC(C(C)C2CCOCC2)O3)cc1 (stereo unspecified) as the compound, how does the logD [1] read?
Answer: 4.93

Question: For CCc1ccc(N(CC2CCC2)S(=O)(=O)c2ccc3c(c2)C(=O)CC(C2CCOCC2)O3)cc1 (stereo unspecified), which logD [1] is on record?
Answer: 4.1

Question: For CCS(=O)(=O)c1ccc(CNS(=O)(=O)c2ccc3c(c2)C(=O)CC(C2CCOCC2)O3)nc1 (stereo unspecified), which IC50 [5] is on record?
Answer: > 10 µM

Question: And the logD [1]?
Answer: 0.32

Question: What about the IC50 [6] of the same compound?
Answer: > 10 µM

Question: Which logD [1] does the source give for CCc1ccc(N(Cc2ccccc2)S(=O)(=O)c2ccc3c(c2)C(=O)CC(C2CCOCC2)O3)cc1 (stereo unspecified) here?
Answer: 4.84

Question: Which logD [1] does the source give for CCc1ccc(N(CC(C)C)S(=O)(=O)c2ccc(OCC3CCOCC3)c3c2CCCC3=O)cc1 here?
Answer: 4.84

Question: For CC(C)CN(c1ccc(C#N)cc1)S(=O)(=O)c1ccc2c(c1)C(=O)CC(C1CCOCC1)O2 (stereo unspecified), which logD [1] is on record?
Answer: 3.16

Question: For O=C1CC(C2CCOCC2)Oc2ccc(S(=O)(=O)N3CCCC3c3ccccc3C(F)(F)F)cc21 (stereo unspecified), which logD [1] is on record?
Answer: 3.5

Question: For CCc1ccc(N(CC(C)C)S(=O)(=O)c2ccc3oc(C4CCOCC4)cc(=O)c3c2)cc1, which logD [1] is on record?
Answer: 4.5

Question: With Cc1nc(N2CCOCC2)ccc1N(CC(C)C)S(=O)(=O)c1ccc2c(c1)C(=O)CC(C1CCOCC1)O2 (stereo unspecified) as the compound, how does the remaining at 1 h, 10 µM [2] read?
Answer: 50.2%

Question: And the logD [1]?
Answer: 3.04

Question: And the half-life at 24 h [7]?
Answer: 56.4 min

Question: What about the half-life at 24 h [8] of the same compound?
Answer: 88.2 min

Question: What about the Tmax at 24 h [9] of the same compound?
Answer: 61.2 min

Question: What about the Tmax at 24 h [10] of the same compound?
Answer: 95.4 min

Question: And the Cmax at 24 h [11]?
Answer: 75 ng/mL

Question: What about the Cmax at 24 h [12] of the same compound?
Answer: 82 ng/mL

Question: And the Vd at 24 h [13]?
Answer: 1.62 L/kg

Question: And the clearance at 24 h [14]?
Answer: 30.2 mL/min/kg

Question: And the AUC(0-t) at 24 h [15]?
Answer: 135 ng·h/mL

Question: What about the AUC(0-t) at 24 h [16] of the same compound?
Answer: 212 ng·h/mL

Question: And the AUC(0-inf) at 24 h [17]?
Answer: 140 ng·h/mL

Question: What about the AUC(0-inf) at 24 h [18] of the same compound?
Answer: 219 ng·h/mL

Question: What about the bioavailability at 24 h [19] of the same compound?
Answer: 47%

Question: What about the half-life at 10 µM [3] of the same compound?
Answer: 59 min

Question: What about the CLint scaled at 10 µM [4] of the same compound?
Answer: 21.1 mL/min/kg

Question: What about the inhibition in vivo at 10 mg/kg [20] of the same compound?
Answer: 54.5%

Question: What about the inhibition in vivo at 20 mg/kg [21] of the same compound?
Answer: 77.7%

Question: Which logD [1] does the source give for CCc1ccc(N(C2CCC2)S(=O)(=O)c2ccc3c(c2)C(=O)CC(C2CCOCC2)O3)cc1 (stereo unspecified) here?
Answer: 3.78

Question: Which logD [1] does the source give for CCc1ccc(N(CC(C)C)S(=O)(=O)c2ccc3cc(OCC4CCOCC4)c(CO)cc3c2)cc1 here?
Answer: 5.1

Question: Which logD [1] does the source give for CC(C)CN(c1cc2ccccc2s1)S(=O)(=O)c1ccc2c(c1)C(=O)CC(C1CCOCC1)O2 (stereo unspecified) here?
Answer: 4.01

Question: For CCc1ccc(N(CC(C)C)S(=O)(=O)c2ccc3c(c2)C(=O)CC(C2CCN(S(=O)(=O)C4CCCC4)CC2)O3)cc1 (stereo unspecified), which logD [1] is on record?
Answer: 4.75
